{"source": "patent US4937245A", "about": "“Bisphenylalkylpiperazine derivatives, a method of their preparation and a pharmaceutical preparation” (priority 1987, dated 1990)", "key": {"[1]": {"test_system": "amphetamine-induced hypermotility in mice", "test": "Antagonism of amphetamine-induced hypermotility in mice (Test 1)", "assay_type": "in vivo", "conditions": "Mus musculus, sc, 1.5 h, test compound s.c., d-amphetamine 2 mg/kg i.p., locomotor activity 90 min, dose reducing motility to midpoint between amphetamine and saline controls", "protocol": "Antagonism of amphetamine-induced hypermotility in mice\nA low dose (2 mg/kg) of d-amphetamine administered to mice induced pronounced locomotor activity.\nFemale NMRI-mice, weighing about 25 g are divided into groups of 4 animals and placed in macrolon cages. The cages are placed on recording arenas in nine sound attenuated boxes with constant light and ventilation. After a familiarization period of 90 minutes the mice are brought up from the cages and treated in the following way; one control group receives saline i.p., one control group receives d-amphetamine sulphate, 2 mg/kg i.p. and test animals are treated s.c. with three different doses of the test compound and immediately thereafter with d-amphetamine 2 mg/kg i.p. Immediately after the administration the macrolon cages with the mice are put back into the test boxes and a computerized equipment records the locomotor activity in the cages for 90 minutes.\nFor each test compound 4 cages are treated with saline, 4 cages with only d-amphetamine and 6 cages/dose test compound+d-amphetamine. This is the total of three different experiments.\nFor each treatment group the mean number of counts during 90 minutes following the administration is calculated.\nThe ED50 -value (mg/kg) is calculated from the dose-response curve by means of linear regression. […]"}, "[2]": {"biological_target": "T1, D2-receptors (Rattus norvegicus, UniProt P61169)", "T1 construct": "from tissue; host or cells: brain membranes", "T1 sequence (P61169 whole entry)": "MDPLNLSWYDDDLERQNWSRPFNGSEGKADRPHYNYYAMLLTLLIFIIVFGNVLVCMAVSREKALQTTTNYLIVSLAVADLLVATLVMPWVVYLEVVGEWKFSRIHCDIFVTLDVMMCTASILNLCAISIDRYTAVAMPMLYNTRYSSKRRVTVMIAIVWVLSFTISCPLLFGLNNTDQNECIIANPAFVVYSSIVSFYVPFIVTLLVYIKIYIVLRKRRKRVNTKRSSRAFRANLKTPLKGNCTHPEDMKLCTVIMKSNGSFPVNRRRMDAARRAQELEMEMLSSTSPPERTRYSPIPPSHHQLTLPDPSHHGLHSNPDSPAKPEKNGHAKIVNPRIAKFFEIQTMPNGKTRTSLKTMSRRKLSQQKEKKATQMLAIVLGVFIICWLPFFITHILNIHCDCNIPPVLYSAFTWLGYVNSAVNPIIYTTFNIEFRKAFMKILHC", "test": "Affinity to D2-receptors, 3H-spiroperidol ligand (Test 2)", "assay_type": "binding", "conditions": "3H-spiroperidol as ligand", "protocol": "Affinity to D2 -receptors\nThe binding assay is carried out essentially as described by Leysen et al., (Mol. Pharmacol. 21, 301-14, 1982) using ^3 H-spiroperidol as ligand."}, "[3]": {"biological_target": "T2, 5HT2-receptors (Rattus norvegicus, UniProt P14842)", "T2 construct": "from tissue; host or cells: brain membranes", "T2 sequence (P14842 whole entry)": "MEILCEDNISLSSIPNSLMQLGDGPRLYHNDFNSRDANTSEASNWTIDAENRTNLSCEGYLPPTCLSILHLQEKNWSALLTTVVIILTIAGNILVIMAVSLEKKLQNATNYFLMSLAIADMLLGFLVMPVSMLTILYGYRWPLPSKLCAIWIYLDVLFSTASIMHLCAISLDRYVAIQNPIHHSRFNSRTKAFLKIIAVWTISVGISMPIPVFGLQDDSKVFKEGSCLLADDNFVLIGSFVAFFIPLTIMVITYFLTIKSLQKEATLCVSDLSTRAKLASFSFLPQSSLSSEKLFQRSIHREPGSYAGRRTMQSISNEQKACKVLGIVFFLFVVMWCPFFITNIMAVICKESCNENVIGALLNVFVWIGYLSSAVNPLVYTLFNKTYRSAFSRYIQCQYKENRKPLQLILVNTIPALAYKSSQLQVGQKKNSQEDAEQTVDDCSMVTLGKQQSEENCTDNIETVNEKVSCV", "test": "Affinity to 5HT2-receptors, 3H-ketanserine ligand (Test 3)", "assay_type": "binding", "conditions": "3H-ketanserine as ligand", "protocol": "Affinity to 5HT2 -receptors\nThe binding assay is carried out essentially as described by Leysen et al., (Mol. Pharmacol. 21, 301-14, 1982) using ^3 H-ketanserine as ligand."}, "[4]": {"test_system": "5-HT2 binding site", "conditions": "background statement on known drugs; cited from earlier work"}}, "data": [{"compound": "NC(=O)c1cccnc1N1CCN(CCCC(c2ccc(F)cc2)c2ccc(F)cc2)CC1", "note": "[1:6, 4-[4,4-bis(p-fluorophenyl)butyl]-1-(3-carbamoyl-2-pyridyl)piperazine]", "values": [{"measurement": "ED50", "setting": "[1]", "result": 0.3, "unit": "mg/kg"}, {"measurement": "Ki", "setting": "[2]", "result": 0.03, "unit": "µM"}, {"measurement": "Ki", "setting": "[3]", "result": 0.0021, "unit": "µM"}]}, {"compound": "Fc1ccc(C(CCCN2CCCN(c3ccccn3)CC2)c2ccc(F)cc2)cc1", "note": "[1:15, 4-[4,4-bis(p-fluorophenyl)butyl]-1-(2-pyridyl)-(1,4-diaza-cycloheptane)]", "values": [{"measurement": "Ki", "setting": "[2]", "result": 0.025, "unit": "µM"}, {"measurement": "Ki", "setting": "[3]", "result": 0.0013, "unit": "µM"}]}, {"compound": "Fc1ccc(C(CCCN2CCN(c3ccccn3)CC2)c2ccc(F)cc2)cc1", "note": "[3:1, 4-[4,4-bis(p-fluorophenyl)butyl]-1-(2-pyridyl)-piperazine]", "values": [{"measurement": "ED50", "setting": "[1]", "result": 0.1, "unit": "mg/kg"}, {"measurement": "Ki", "setting": "[2]", "result": 0.06, "unit": "µM"}, {"measurement": "Ki", "setting": "[3]", "result": 0.0058, "unit": "µM"}]}, {"compound": "Cc1nc2sccn2c(=O)c1CCN1CCC(=C(c2ccc(F)cc2)c2ccc(F)cc2)CC1", "note": "[ritanserine]", "values": [{"measurement": "5HT2 blocking potency / binding site preference", "setting": "[4]", "result": "labels preferentially the 5-HT2 binding site"}]}]}
